Data taken from the NIST ThermoML archive (doi:10.1016/j.jct.2013.11.022).

Experiment: mn = molality of the nth substance listed, in mol/kg
Conditions: 101.33 kPa, Liquid; for viscosity: Capillary tube (Ostwald / Ubbelohde) method; for speed of sound: Sing-around technique in a fixed-path interferometer; for mass density: Vibrating tube method

CCCCCCCCCCCCOS(=O)(=O)[O-].[Na+] [sodium dodecyl sulfate] + O
Conditions	mass density [kg/m3]	speed of sound [m/s]	viscosity [mPa·s]
293.15 K, m1 = 0.0001	998.198	1482.9	1.014
293.15 K, m1 = 0.0003	998.209	1482.9	1.014
293.15 K, m1 = 0.0005	998.221	1483	1.016
293.15 K, m1 = 0.002	998.31	1483.2	1.02
293.15 K, m1 = 0.004	998.425	1483.5	1.02
293.15 K, m1 = 0.006	998.538	1483.7	1.024
293.15 K, m1 = 0.008	998.647	1484	1.026
293.15 K, m1 = 0.01	998.75	1484.2	1.027
293.15 K, m1 = 0.012	998.851	1484.5	1.029
293.15 K, m1 = 0.014	998.949	1484.6	1.034
293.15 K, m1 = 0.016	999.048	1484.8	1.036
293.15 K, m1 = 0.018	999.145	1484.9	1.04
293.15 K, m1 = 0.02	999.237	1485	1.042
293.15 K, m1 = 0.022	999.338	1485.2	1.047
293.15 K, m1 = 0.024	999.426	1485.3	1.052
298.15 K, m1 = 0.0001	997.034	1497	0.895
298.15 K, m1 = 0.0003	997.045	1497	0.8952
298.15 K, m1 = 0.0005	997.057	1497.1	0.8955
298.15 K, m1 = 0.002	997.144	1497.3	0.8963
298.15 K, m1 = 0.004	997.255	1497.6	0.8969
298.15 K, m1 = 0.006	997.365	1497.8	0.8976
298.15 K, m1 = 0.008	997.472	1498.1	0.8981
298.15 K, m1 = 0.01	997.569	1498.4	0.899
298.15 K, m1 = 0.012	997.67	1498.6	0.9008
298.15 K, m1 = 0.014	997.768	1498.7	0.9073
298.15 K, m1 = 0.016	997.867	1498.9	0.9091
298.15 K, m1 = 0.018	997.957	1499	0.9114
298.15 K, m1 = 0.02	998.048	1499.1	0.9136
298.15 K, m1 = 0.022	998.142	1499.3	0.9191
298.15 K, m1 = 0.024	998.232	1499.4	0.9211
303.15 K, m1 = 0.0001	995.633	1509.3	0.801
303.15 K, m1 = 0.0003	995.644	1509.4	0.8015
303.15 K, m1 = 0.0005	995.655	1509.4	0.8018
303.15 K, m1 = 0.002	995.74	1509.6	0.8024
303.15 K, m1 = 0.004	995.848	1509.9	0.8028
303.15 K, m1 = 0.006	995.955	1510.2	0.8032
303.15 K, m1 = 0.008	996.058	1510.4	0.8037
303.15 K, m1 = 0.01	996.155	1510.7	0.8039
303.15 K, m1 = 0.012	996.252	1510.8	0.8054
303.15 K, m1 = 0.014	996.348	1511	0.8085
303.15 K, m1 = 0.016	996.441	1511.2	0.8114
303.15 K, m1 = 0.018	996.536	1511.3	0.8135
303.15 K, m1 = 0.02	996.624	1511.4	0.8161
303.15 K, m1 = 0.022	996.718	1511.6	0.8193
303.15 K, m1 = 0.024	996.807	1511.7	0.8206
308.15 K, m1 = 0.0001	994.016	1520	0.7228
308.15 K, m1 = 0.0003	994.026	1520	0.7232
308.15 K, m1 = 0.0005	994.037	1520	0.7236
308.15 K, m1 = 0.002	994.12	1520.2	0.7241
308.15 K, m1 = 0.004	994.224	1520.5	0.7245
308.15 K, m1 = 0.006	994.327	1520.8	0.725
308.15 K, m1 = 0.008	994.429	1521	0.7253
308.15 K, m1 = 0.01	994.524	1521.3	0.7259
308.15 K, m1 = 0.012	994.619	1521.5	0.7264
308.15 K, m1 = 0.014	994.715	1521.6	0.7279
308.15 K, m1 = 0.016	994.806	1521.8	0.73
308.15 K, m1 = 0.018	994.898	1521.9	0.7345
308.15 K, m1 = 0.02	994.988	1522	0.7388
308.15 K, m1 = 0.022	995.076	1522.2	0.7422
308.15 K, m1 = 0.024	995.164	1522.3	0.7465
313.15 K, m1 = 0.0001	992.2	1529	0.6564
313.15 K, m1 = 0.0003	992.21	1529	0.6566
313.15 K, m1 = 0.0005	992.22	1529.1	0.657
313.15 K, m1 = 0.002	992.299	1529.3	0.6576
313.15 K, m1 = 0.004	992.402	1529.5	0.6585
313.15 K, m1 = 0.006	992.5	1529.8	0.6599
313.15 K, m1 = 0.008	992.601	1530.1	0.6616
313.15 K, m1 = 0.01	992.696	1530.3	0.6628
313.15 K, m1 = 0.012	992.789	1530.5	0.6646
313.15 K, m1 = 0.014	992.884	1530.7	0.6667
313.15 K, m1 = 0.016	992.975	1530.8	0.6689
313.15 K, m1 = 0.018	993.061	1530.9	0.6718
313.15 K, m1 = 0.02	993.153	1531.1	0.6747
313.15 K, m1 = 0.022	993.239	1531.2	0.6775
313.15 K, m1 = 0.024	993.323	1531.3	0.6794
